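Briefly, cells in 96-well plates were exposed to five compound concentrations for 48 h, and endpoints were estimated by linear interpolation. TGI: concentration producing complete growth inhibition.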
Columns and labels:
Test in all cases: DTP human tumour cell line panel, 48 h
[1] = system: HCT-15 colon
[2] = system: U251 CNS
[3] = system: SNB-19 CNS
[4] = system: COLO 205 colon
[5] = system: OVCAR-3 ovarian
[6] = system: T-47D breast
[7] = system: TK-10 renal
[8] = system: LOX IMVI melanoma
[9] = system: SW-620 colon
[10] = system: ACHN renal
[11] = system: MALME-3M melanoma
[12] = system: SF-295 CNS
[13] = system: MCF7 breast
[14] = system: 786-0 renal
[15] = system: UO-31 renal
[16] = system: UACC-62 melanoma
[17] = system: IGROV1 ovarian
[18] = system: SF-268 CNS
[19] = system: MDA-N
[20] = system: OVCAR-4 ovarian
[21] = system: SF-539 CNS
[22] = system: A498 renal
[23] = system: BT-549 breast
[24] = system: KM12 colon
[25] = system: HL-60(TB) leukemia
[26] = system: MDA-MB-435
[27] = system: HOP-62 NSCLC
[28] = system: SK-OV-3 ovarian
[29] = system: HCC-2998 colon
[30] = system: SK-MEL-28 melanoma
[31] = system: RPMI-8226 leukemia
[32] = system: M14 melanoma
[33] = system: SK-MEL-5 melanoma
[34] = system: MOLT-4 leukemia
[35] = system: HCT-116 colon
[36] = system: NCI-H460 lung
[37] = system: NCI/ADR-RES ovarian
[38] = system: NCI-H23 lung
[39] = system: CCRF-CEM leukemia
[40] = system: DU-145 prostate
[41] = system: OVCAR-5 ovarian
[42] = system: K-562 leukemia
[43] = system: MDA-MB-231 breast
[44] = system: HS 578T breast
[45] = system: HT29 colon
[46] = system: RXF 393 renal
[47] = system: A549 NSCLC
[48] = system: OVCAR-8 ovarian
[49] = system: SK-MEL-2 melanoma
[50] = system: PC-3 prostate
[51] = system: NCI-H226 lung
[52] = system: EKVX NSCLC
[53] = system: UACC-257 melanoma
[54] = system: CAKI-1 renal
[55] = system: NCI-H522 lung
[56] = system: SN12C renal

Measured: TGI

Nc1ncnc2nc(N3CCN(CCO)CC3)[nH]c12
> 100 µM: [1] | [2] | [3] | [4] | [5] | [6] | [7] | [8] | [9] | [10] | [11] | [12] | [13] | [14] | [15] | [16] | [17] | [18] | [19] | [20] | [21] | [22] | [23] | [24] | [25] | [26] | [27] | [28] | [29] | [30] | [31] | [32] | [33] | [34] | [35] | [36] | [37] | [38] | [39] | [40] | [41] | [42] | [43] | [44] | [45] | [46] | [47] | [48] | [49] | [50] | [51] | [52] | [53] | [54] | [55] | [56]

From PubChem BioAssay (NCI)
